# Results: PMC12445744, “Molecular docking to homology models of human and Trypanosoma brucei ERK8 that identified ortholog-specific inhibitors” (PLOS Neglected Tropical Diseases, 2025)
# “And” between values parts separate entries of the source, which are not always exact repeats. Equal values may be shown once.
# Key:
# HsERK8 [1] = target: T1, HsERK8 (Homo sapiens, UniProt Q8TD08); settings: cited from earlier work
# T1 construct: plasmid pGEX2T expressing the full-length hERK8 coding region; made in house; host or cells: Escherichia coli Rosetta 2 (DE3)
# T1 sequence (Q8TD08 1-544): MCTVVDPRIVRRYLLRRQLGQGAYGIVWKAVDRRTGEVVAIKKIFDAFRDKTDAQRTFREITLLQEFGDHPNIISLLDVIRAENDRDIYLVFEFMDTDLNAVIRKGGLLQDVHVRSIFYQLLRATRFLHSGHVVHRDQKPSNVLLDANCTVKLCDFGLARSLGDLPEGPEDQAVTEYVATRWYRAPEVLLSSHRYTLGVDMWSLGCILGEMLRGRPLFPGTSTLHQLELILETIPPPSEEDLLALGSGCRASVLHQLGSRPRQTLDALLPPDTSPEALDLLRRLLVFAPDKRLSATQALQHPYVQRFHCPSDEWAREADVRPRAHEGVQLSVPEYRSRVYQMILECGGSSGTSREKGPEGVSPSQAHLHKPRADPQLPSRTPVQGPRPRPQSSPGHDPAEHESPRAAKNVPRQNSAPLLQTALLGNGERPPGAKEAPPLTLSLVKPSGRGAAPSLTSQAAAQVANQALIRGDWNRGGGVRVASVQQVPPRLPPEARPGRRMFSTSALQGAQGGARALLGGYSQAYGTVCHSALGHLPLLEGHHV
# T. brucei = settings: cited from earlier work
# TbERK8 [2] = target: T2, TbERK8 (Trypanosoma brucei brucei, UniProt Q38B88); settings: cited from earlier work
# T2 sequence (Q38B88 1-442): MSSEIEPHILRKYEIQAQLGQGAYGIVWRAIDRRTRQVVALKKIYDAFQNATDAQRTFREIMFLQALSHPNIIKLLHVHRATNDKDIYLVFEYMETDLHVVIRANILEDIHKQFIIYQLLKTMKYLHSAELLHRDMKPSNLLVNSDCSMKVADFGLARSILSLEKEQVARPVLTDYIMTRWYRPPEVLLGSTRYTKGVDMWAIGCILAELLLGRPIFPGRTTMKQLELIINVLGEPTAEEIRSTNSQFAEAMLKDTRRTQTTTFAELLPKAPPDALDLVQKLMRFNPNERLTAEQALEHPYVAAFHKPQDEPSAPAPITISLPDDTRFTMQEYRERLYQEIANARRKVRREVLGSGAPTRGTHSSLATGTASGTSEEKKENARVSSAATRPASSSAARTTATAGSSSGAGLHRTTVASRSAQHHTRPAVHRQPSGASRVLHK
# TbERK8 [3] = target: T2, TbERK8; assay: Luciferase-based kinase inhibition assay (ATP luminescence), GST-tagged TbERK8 with MBP substrate; format: biochemical; parameters: raw luminescence, TbERK8: unit of the concentration uncertain; settings: for raw luminescence, TbERK8: sheet Kinase_glo_080924_IFPS (2), replicate wells
# Description: (§1) Escherichia coli strain Rosetta 2 (DE3) (Cat# 71397, MilliporeSigma, Burlington, MA) was transformed with the plasmid pGEX2T expressing the full-length hERK8 coding region or pGSTAg expressing the full-length TbERK8 coding region. One liter of Terrific Broth media containing 100 μg/ml Ampicillin and 30 μg/ml chloramphenicol in 2 L baffled flasks was inoculated with 25 mL from an overnight culture of Rosetta 2 strains harboring either the pGEX2T-hERK8 or pGSTAg-TbERK8 plasmid. Two baffled flasks were inoculated with each overnight strain and incubated and shaken at 175 RPM in a New Brunswick Innova 44R Incubator Shaker (Fischer Scientific, Pittsburgh, PA) at 37 °C until the cultures reached an O.D.600 of 0.94. Once the cultures in the flask reached the target O.D.600, the flasks were cooled to 4 °C in an ice water bath. The cooled cultures were induced by adding isopropyl β-D-1-thiogalactopyranoside (IPTG) to a final concentration of 0.1 mM and shaken at 16 °C for 16 hours at 175 RPM in a New Brunswick Innova 44R Incubator Shaker (Fischer Scientific, Pittsburgh, PA). On the next day, the cultures were pelleted by centrifugation at 9000 xg in a JLA 10.500 rotor (Beckman Coulter; Brea, CA), and the media was decanted. The pellet was flash-frozen in liquid nitrogen and then thawed on ice. The thawed pellet was resuspended in lysis buffer (25 mM Tris, 75 mM NaCl, 0.5% TritonX-100 and 0.5% Nonidet P-40, 1 mM phenylmethanesulfonyl fluoride, 1 mM benzamidine⋅HCl) and lysed using a microfluidizer M-110P from Microfluidics (Westwood, MA). The crude lysates were clarified by centrifugation at 140,000 xg in a 45Ti rotor (Beckman Coulter, Brea, CA) for 30 min at 4°C. The clarified lysate was loaded by gravity to a 3 mL glutathione agarose resin column (Cat# G-250–10, GOLDBIO, St. Louis, MO) formed in a 1.5 × 20 cm glass chromatography column (Cat# 7371522, Bio-Rad, Hercules, CA). The column was washed with 30 mL of PBS (pH 7.4) containing 1 mM DTT. Elution buffer (50 mM Tris buffer pH 8.0 containing 10 mM reduced glutathione and 1 mM DTT was added to the washed column), and 1 mL fractions were collected by gravity and examined by SDS-PAGE stained by Coomassie dye. Peak fractions pooled from the elution were dialyzed (4x 1:500 dilutions) in kinase buffer (30 mM Tris, pH 7.4, 10 mM MgCl2, 1 mM DTT, 5% glycerol).
# (§2) We performed kinase assays in buffer K (30 mM Tris pH 7.4, 10 mM MgCl2, 1 mM DTT, 5% glycerol, 50 μM ATP, and 0.1 mg/mL BSA) at 30°C for 30 min in 30 μL reactions. GST-tagged HsERK8 and TbERK8 were tested using myelin basic protein (MBP) (Cat# 13–110, Millipore, Darmstadt, Germany) as the substrate at increasing concentrations to determine the optimal activity for the assay. ATP consumption was determined by adding equal volumes of the kinase assay reagent (Promega, Cat# V5601, Madison, WI) following the manufacturer’s protocol. Luminescence was measured using the microplate reader (SpectraMax L, Molecular Devices, Sunnyvale, CA).
# (§3) These compounds were screened for kinase inhibition utilizing a luciferase-based assay. Briefly, the kinases were tested using MBP as the substrate at a 14-fold molar excess in 384-well flat-bottom white plates (BRANDTECH Scientific, Cat# 781681, Essex, CT). These compounds were tested at concentrations ranging from […] to 150 nM. The kinases plus MBP substrate reactions were incubated with each inhibitor for 30 minutes at 30°C. Equal volumes of kinase assay mix Promega (Cat# V5601, Madison, WI) were added to the kinase/inhibitor reaction after 30 minutes, following the manufacturer’s protocol. ATP luminescence was measured using a microplate reader (SpectraMax L, Molecular Devices, Sunnyvale, CA). IC50 values were calculated from assays done in triplicate by fitting the data using Prism 8.1.1 (GraphPad).
# HsERK8 [4] = target: T1, HsERK8; assay: Luciferase-based kinase inhibition assay (ATP luminescence), GST-tagged HsERK8 with MBP substrate; format: biochemical; settings: for raw luminescence, HsERK8: sheet Kinase_glo_080924_IFPS (2), replicate wells
# Description: as §1, §2, §3
# [5] = at any tested concentration (10 mM to 150 nM)
structure (smiles),measurement,setting,value
"Cc1cc(Nc2nc(N[C@@H](C)c3ccc(F)cc3)c(C#N)cc2F)n[nH]1 [AZ960, (S)-5-Fluoro-2-(1-(4-fluorophenyl)ethylamino)-6-(5-methyl-1H-pyrazol-3-ylamino)nicotinonitrile]",inhibition of HsERK8,HsERK8 [1],inhibiting HsERK8 poorly
same,effect on T. brucei parasite,T. brucei,killed the parasite
same,IC50,TbERK8 [2]; read-out: IC50 for TbERK8 (published),120 nM
Cc1ncc(-c2ccnc(Nc3ccc(S(C)(=O)=O)cc3)n2)n1C(C)C [AZD5438],inhibition of HsERK8,HsERK8 [1],potent inhibitor
same,inhibition of TbERK8,TbERK8 [2],potent inhibitor
C[C@]12CCC(=O)C=C1CC[C@H]1[C@@H]3CC[C@](O)(C(=O)CO)[C@@]3(C)C[C@H](O)[C@@]12F [Fludrocortisone],"raw luminescence, TbERK8",TbERK8 [3]; 0.00015 (unit uncertain) compound,1859.59 RLU and 2054.98 RLU and 1825.9 RLU
same,"raw luminescence, TbERK8",TbERK8 [3]; 0.00061 (unit uncertain) compound,756.861 RLU and 669.272 RLU and 696.222 RLU
same,"raw luminescence, TbERK8",TbERK8 [3]; 0.00244 (unit uncertain) compound,839.958 RLU and 756.861 RLU and 772.582 RLU
same,"raw luminescence, TbERK8",TbERK8 [3]; 0.00977 (unit uncertain) compound,471.634 RLU and 512.06 RLU and 359.34 RLU
same,"raw luminescence, TbERK8",TbERK8 [3]; 0.03906 (unit uncertain) compound,947.761 RLU and 727.664 RLU and 806.27 RLU
same,"raw luminescence, TbERK8",TbERK8 [3]; 0.15625 (unit uncertain) compound,579.437 RLU and 552.486 RLU and 756.861 RLU
same,"raw luminescence, TbERK8",TbERK8 [3]; 0.62500 (unit uncertain) compound,736.648 RLU and 693.976 RLU and 673.763 RLU
same,"raw luminescence, TbERK8",TbERK8 [3]; 2.50000 (unit uncertain) compound,1122.94 RLU and 1073.53 RLU and 1107.22 RLU
same,"raw luminescence, TbERK8","TbERK8 [3]; 10.00000 (unit uncertain) compound, signal = ATP left",4505.23 RLU and 4303.1 RLU and 4100.97 RLU
same,inhibition of kinase activity of TbERK8,TbERK8 [3]; [5],did not inhibit
same,"raw luminescence, HsERK8",HsERK8 [4]; 0.00015 mM compound,3640.57 RLU and 3844.94 RLU and 3813.5 RLU
same,"raw luminescence, HsERK8",HsERK8 [4]; 0.00061 mM compound,4118.94 RLU and 4395.18 RLU and 4579.35 RLU
same,"raw luminescence, HsERK8",HsERK8 [4]; 0.00244 mM compound,4696.13 RLU and 4963.39 RLU and 5212.68 RLU
same,"raw luminescence, HsERK8",HsERK8 [4]; 0.00977 mM compound,4772.49 RLU and 5547.32 RLU and 5378.88 RLU
same,"raw luminescence, HsERK8",HsERK8 [4]; 0.03906 mM compound,6005.48 RLU and 7079.01 RLU and 7018.37 RLU
same,"raw luminescence, HsERK8",HsERK8 [4]; 0.15625 mM compound,6266 RLU and 7171.09 RLU and 7216.01 RLU
same,"raw luminescence, HsERK8",HsERK8 [4]; 0.62500 mM compound,7168.84 RLU and 8628.66 RLU and 8372.63 RLU
same,"raw luminescence, HsERK8",HsERK8 [4]; 2.50000 mM compound,6252.52 RLU and 7644.97 RLU and 7582.08 RLU
same,"raw luminescence, HsERK8","HsERK8 [4]; 10.00000 mM compound, signal = ATP left",11251.8 RLU and 11631.4 RLU and 11334.9 RLU
same,inhibition of kinase activity of HsERK8,HsERK8 [4]; [5],did not inhibit
"Cn1cc(C2=C(c3cn(CCCSC(=N)N)c4ccccc34)C(=O)NC2=O)c2ccccc21 [Ro318220, 3-{3-[4-(1-Methyl-1H-indol-3-yl)-2,5-dioxo-2,5-dihydro-1H-pyrrol-3-yl]-1H-indol-1-yl}propyl carbamimidothioate]",greater potency inhibiting HsERK8 than TbERK8,HsERK8 [1]; HsERK8 over TbERK8,100–300 fold
same,IC50,HsERK8 [1]; read-out: IC50 for HsERK8 (reported),5 to 10 nM
